“And” between values parts separate entries of the source, which are not always exact repeats. Identical values can stand only once.
Key:
U2OS = assay: OncoPanel cell proliferation assay, U2OS; assay type: cell-based, human; settings: for EC50: read-out: Cell Count EC50; for IC50: read-out: Cell Count IC50; for Cell Count Activity Area: scale 0-10
Description: Cells were seeded into 384-well plates and incubated in a humidified atmosphere of 5% CO2 at 37° C. Compounds were added the day following cell seeding. At the same time, a time zero untreated cell plate was generated. After a 3-day incubation period, cells were fixed and stained to allow fluorescence imaging of nuclei. Compounds (1 mM stock solutions) were serially diluted in half-log steps from the highest test concentration ([…]), and assayed over 10 concentrations with a maximum assay concentration of 0.1% DMSO. Automated fluorescence microscopy was carried out using a Molecular Devices ImageXpress Micro XL high-content imager, and images were collected with a 4× objective. 16-bit TIFF images were acquired and analyzed with MetaXpress 5.1.0.41 software.
Cell proliferation was measured by the fluorescence intensity of an incorporated nuclear dye. The output is referred to as the relative cell count, where the measured nuclear intensity is transformed to percent of control (POC) using the following formula: […]
Cellular response parameters were calculated using nonlinear regression to a sigmoidal single-site dose response model:
Where y is a response measured at concentration x, A and B are the lower and upper limits of the response, C is the concentration at the response midpoint (EC50), and D is the Hill Slope (Ref. 1).
GI50 is the concentration needed to reduce the observed growth by half (midway between the curve maximum and the time zero value). […] In rare instances, values <0 or >10 may be observed. […] Curve-fitting, calculations, and report generation was performed using a custom data reduction engine and MathIQ based software (AIM).

[1] = mouse, in vivo, ip, 10 mg/kg
Description: (§1) Tumor growth was monitored daily. […] Significance was set at p≤0.05.

[2] = Day 30, 10 mg/kg IP QD
Description: as §1

[3] = Whole blood concentrations in mice after IP dosing (LC-MS/MS); assay type: in vivo
Description: These determinations were made using protein precipitation, liquid chromatography (LC), and mass spectrometry (MS/MS). Ten μl aliquots of whole blood and matrix calibration standards were distributed in a 96-well plate; 10 μl aliquots of blank matrix for matrix blanks and control blanks were included as controls. Ten μl of water was added to each sample followed by vortexing. One hundred sixty […] of internal standard was added to each sample except the matrix blanks; 160 μl 70:30 water:acetonitrile (ACN) was added to matrix blanks. This was followed by a […]. One hundred fifty μl of the resultant supernatant was then transferred to a new 96-well plate and the samples blown to dryness at 35° C. The resultant product was then reconstituted with 90 μl ACN.

[4] = Homo sapiens, 72 h, 3-day incubation
[5] = 2 mg/kg IP QD x 3 days, Day 1, 1.00 hrs
[6] = 2 mg/kg IP QD x 3 days, Day 1, 2.00 hrs
[7] = 2 mg/kg IP QD x 3 days, Day 1, 6.00 hrs
[8] = 2 mg/kg IP QD x 3 days, Day 1, 24.0 hrs
[9] = 2 mg/kg IP QD x 3 days, Day 2, 1.00 hrs
[10] = 2 mg/kg IP QD x 3 days, Day 2, 2.00 hrs
[11] = 2 mg/kg IP QD x 3 days, Day 2, 6.00 hrs
[12] = 2 mg/kg IP QD x 3 days, Day 2, 24.0 hrs
[13] = 2 mg/kg IP QD x 3 days, Day 3, 1.00 hrs
[14] = 2 mg/kg IP QD x 3 days, Day 3, 2.00 hrs
[15] = 2 mg/kg IP QD x 3 days, Day 3, 6.00 hrs
[16] = 2 mg/kg IP QD x 3 days, Day 3, 24.0 hrs
[17] = 10 mg/kg IP QD x 3 days, Day 1, 1.00 hrs
[18] = 10 mg/kg IP QD x 3 days, Day 1, 2.00 hrs
[19] = 10 mg/kg IP QD x 3 days, Day 1, 6.00 hrs
[20] = 10 mg/kg IP QD x 3 days, Day 1, 24.0 hrs
[21] = 10 mg/kg IP QD x 3 days, Day 2, 2.00 hrs
[22] = 10 mg/kg IP QD x 3 days, Day 2, 24.0 hrs

In the case of CO[C@H]1C[C@@H]2CC[C@@H](C)[C@@](O)(O2)C(=O)C(=O)N2CCCC[C@H]2C(=O)O[C@H]([C@H](C)C[C@@H]2C[C@@H]3C[C@H]2C[C@H]3O)CC(=O)[C@H](C)/C=C(\C)[C@@H](O)[C@@H](OC)C(=O)[C@H](C)C[C@H](C)/C=C/C=C/C=C/1C [Formula I, 37R-hydroxynorbornylrapamycin], the “Relative cell count (%) Mean” value (U2OS; 1.00E+00 microM) is reported as 50.8%, the “Relative cell count (%) Mean” value (U2OS; 1.00E−01 microM) is reported as 48.5% and the “Relative cell count (%) Mean” value (U2OS; 1.00E−02 microM) is reported as 51.4%. For the same compound, the “Relative cell count (%) Mean” value (U2OS; 1.00E−03 microM) was 69.9%, the “Relative cell count (%) Mean” value (U2OS; 1.01E−04 microM) was 86.1% and the “Relative cell count (%) Mean” value (U2OS; 3.16E−01 microM) was 43.2%. The “Relative cell count (%) Mean” value (U2OS; 3.17E−02 microM) was 47.8%, the “Relative cell count (%) Mean” value (U2OS; 3.17E−03 microM) was 62.6% and the “Relative cell count (%) Mean” value (U2OS; 3.18E−04 microM) was 75.4%. For the same compound, the “Relative cell count (%) Mean” value (U2OS; 3.18E−05 microM) was 95.3%, the EC50 (U2OS; [4]) was 0.395 nM and the GI50 (U2OS; Homo sapiens, 72 h, 3-day incubation, read-out: Cell Count GI50) was 2.76 nM. For the same compound, the IC50 (U2OS; [4]) was 12.1 nM, the “Cell Count Activity Area” value (U2OS) was 4.05 and the “Body Wt. % Δ from Baseline, Mean” value [1] was 14.24%. The “Body Wt. % Δ from Baseline, Median” value [1] was 14.91%, the “Percent Survival” value [2] was 100% and the “Concentration in Mouse Whole Blood, Mean” value [3, 5] was 529 ng/mL. The “Concentration in Mouse Whole Blood, individual animals 1-3” value (from here on “Concentration … individual animals 1-3”) [3, 5] was 519 ng/mL and 530 ng/mL and 537 ng/mL, the “Concentration in Mouse Whole Blood, Mean” value [3, 6] was 431 ng/mL and the “Concentration … individual animals 1-3” value [3, 6] was 668 ng/mL and 392 ng/mL and 233 ng/mL. The “Concentration in Mouse Whole Blood, Mean” value [3, 7] was 486 ng/mL, the “Concentration … individual animals 1-3” value [3, 7] was 468 ng/mL and 646 ng/mL and 344 ng/mL and the “Concentration in Mouse Whole Blood, Mean” value [3, 8] was 36.6 ng/mL. For the same compound, the “Concentration … individual animals 1-3” value [3, 8] was 35.8 ng/mL and 48.0 ng/mL and 26.0 ng/mL, the “Concentration in Mouse Whole Blood, Mean” value [3, 9] was 569 ng/mL and the “Concentration … individual animals 1-3” value [3, 9] was 682 ng/mL and 670 ng/mL and 354 ng/mL. For the same compound, the “Concentration in Mouse Whole Blood, Mean” value [3, 10] was 814 ng/mL, the “Concentration … individual animals 1-3” value [3, 10] was 746 ng/mL and 841 ng/mL and 854 ng/mL and the “Concentration in Mouse Whole Blood, Mean” value [3, 11] was 552 ng/mL. For the same compound, the “Concentration … individual animals 1-3” value [3, 11] was 537 ng/mL and 803 ng/mL and 315 ng/mL, the “Concentration in Mouse Whole Blood, Mean” value [3, 12] was 47.8 ng/mL and the “Concentration … individual animals 1-3” value [3, 12] was 26.8 ng/mL and 76.5 ng/mL and 40.1 ng/mL. The “Concentration in Mouse Whole Blood, Mean” value [3, 13] was 946 ng/mL, the “Concentration … individual animals 1-3” value [3, 13] was 968 ng/mL and 885 ng/mL and 986 ng/mL and the “Concentration in Mouse Whole Blood, Mean” value [3, 14] was 583 ng/mL. The “Concentration … individual animals 1-3” value [3, 14] was 760 ng/mL and 707 ng/mL and 282 ng/mL, the “Concentration in Mouse Whole Blood, Mean” value [3, 15] was 630 ng/mL and the “Concentration … individual animals 1-3” value [3, 15] was 560 ng/mL and 860 ng/mL and 469 ng/mL. The “Concentration in Mouse Whole Blood, Mean” value [3, 16] was 62.5 ng/mL, the “Concentration … individual animals 1-3” value [3, 16] was 45.7 ng/mL and 92.2 ng/mL and 49.7 ng/mL and the “Concentrations in whole blood over time (in words)” value ([3]; 2 mg/kg or 10 mg/kg IP QD for three days) was “sufficient concentrations in whole blood over time”. For the same compound, the “Concentration in Mouse Whole Blood, Mean” value [3, 17] was 778 ng/mL, the “Concentration in Mouse Whole Blood, individual animals 4-6” value (from here on “Concentration … individual animals 4-6”) [3, 17] was 744 ng/mL and 736 ng/mL and 853 ng/mL and the “Concentration in Mouse Whole Blood, Mean” value [3, 18] was 2340 ng/mL. For the same compound, the “Concentration … individual animals 4-6” value [3, 18] was 2390 ng/mL and 2040 ng/mL and 2590 ng/mL, the “Concentration in Mouse Whole Blood, Mean” value [3, 19] was 1726 ng/mL and the “Concentration … individual animals 4-6” value [3, 19] was 1970 ng/mL and 2300 ng/mL and 908 ng/mL. For the same compound, the “Concentration in Mouse Whole Blood, Mean” value [3, 20] was 273 ng/mL, the “Concentration … individual animals 4-6” value [3, 20] was 357 ng/mL and 320 ng/mL and 141 ng/mL and the “Concentration … individual animals 4-6” value ([3]; 10 mg/kg IP QD x 3 days, Day 2, 1.00 hrs) was “AQL (Original value above quantitation limit (1000 ng/mL)) and 3130 ng/mL and 739 ng/mL”. The “Concentration in Mouse Whole Blood, Mean” value ([3]; 10 mg/kg IP QD x 3 days, Day 2, 1.00 hrs, one animal AQL) was 1935 ng/mL, the “Concentration in Mouse Whole Blood, Mean” value [3, 21] was 2820 ng/mL and the “Concentration … individual animals 4-6” value [3, 21] was 3060 ng/mL and 2660 ng/mL and 2740 ng/mL. The “Concentration … individual animals 4-6” value ([3]; 10 mg/kg IP QD x 3 days, Day 2, 6.00 hrs) was “AQL (Original value above quantitation limit (1000 ng/mL)) (2×) and 811 ng/mL”, the “Concentration in Mouse Whole Blood, Mean” value ([3]; 10 mg/kg IP QD x 3 days, Day 2, 6.00 hrs, two animals AQL) was 811 ng/mL and the “Concentration in Mouse Whole Blood, Mean” value [3, 22] was 335 ng/mL. For the same compound, the “Concentration … individual animals 4-6” value [3, 22] was 335 ng/mL and 472 ng/mL and 199 ng/mL, the “Concentration … individual animals 4-6” value ([3]; 10 mg/kg IP QD x 3 days, Day 3, 1.00 hrs) was 3490 ng/mL and 3220 ng/mL and the “Concentration … individual animals 4-6” value ([3]; 10 mg/kg IP QD x 3 days, Day 3, 2.00 hrs) was 2530 ng/mL and 2680 ng/mL and 482 ng/mL. The “Concentration … individual animals 4-6” value ([3]; 10 mg/kg IP QD x 3 days, Day 3, 6.00 hrs) was 966 ng/mL and 2410 ng/mL and 773 ng/mL and the “Concentration … individual animals 4-6” value ([3]; 10 mg/kg IP QD x 3 days, Day 3, 24.0 hrs) was 548 ng/mL and 276 ng/mL.

With CO[C@H]1C[C@@H]2CC[C@@H](C)[C@@](O)(O2)C(=O)C(=O)N2CCCC[C@H]2C(=O)O[C@H]([C@H](C)C[C@@H]2CC[C@@H](O)[C@H](OC)C2)CC(=O)[C@H](C)/C=C(\C)[C@@H](O)[C@@H](OC)C(=O)[C@H](C)C[C@H](C)/C=C/C=C/C=C/1C [Rapamycin, reference compound] the EC50 (U2OS; [4]) was 0.65 nM, the IC50 (U2OS; [4]) was greater than 1000 nM and the “Cell Count Activity Area” value (U2OS) was 3.04.
